Laboratory results as given in patent US20230113037A1 (Bayer Aktiengesellschaft, priority 2019, published 2023).
Like-named read-outs stand apart in the source and are kept apart here.

Assays:
AHR [1] = biological target: T1, AHR (Mus musculus, UniProt P30561); assay: In vitro assay 3: antagonism in mouse cell line (AHR transactivation, firefly luciferase reporter, kynurenic acid prestimulated); type: cell-based
T1 sequence (P30561 1-848 P471L/N533S/M589L): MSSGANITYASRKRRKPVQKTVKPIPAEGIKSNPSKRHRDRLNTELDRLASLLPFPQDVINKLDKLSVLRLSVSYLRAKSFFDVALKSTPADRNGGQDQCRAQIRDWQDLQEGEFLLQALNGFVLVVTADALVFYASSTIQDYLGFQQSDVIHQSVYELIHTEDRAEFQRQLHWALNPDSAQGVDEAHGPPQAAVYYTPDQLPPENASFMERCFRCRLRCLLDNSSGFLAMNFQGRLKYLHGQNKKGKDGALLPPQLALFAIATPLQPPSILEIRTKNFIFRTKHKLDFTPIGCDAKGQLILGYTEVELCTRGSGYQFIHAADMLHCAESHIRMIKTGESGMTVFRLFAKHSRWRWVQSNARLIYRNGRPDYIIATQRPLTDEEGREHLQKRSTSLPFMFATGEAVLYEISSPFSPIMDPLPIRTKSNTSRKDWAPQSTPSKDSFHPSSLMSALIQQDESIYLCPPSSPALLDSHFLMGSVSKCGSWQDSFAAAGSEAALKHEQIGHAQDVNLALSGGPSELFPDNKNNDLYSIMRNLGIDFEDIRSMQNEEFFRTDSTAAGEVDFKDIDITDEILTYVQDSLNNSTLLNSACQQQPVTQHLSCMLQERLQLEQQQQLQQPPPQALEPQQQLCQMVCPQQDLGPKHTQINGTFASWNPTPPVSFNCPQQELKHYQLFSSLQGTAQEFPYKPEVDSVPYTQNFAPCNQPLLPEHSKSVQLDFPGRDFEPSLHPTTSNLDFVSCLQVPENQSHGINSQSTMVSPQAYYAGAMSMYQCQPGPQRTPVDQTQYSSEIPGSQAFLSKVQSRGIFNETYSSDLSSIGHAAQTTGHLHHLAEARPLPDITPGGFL
Method in brief: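 Kynurenic acid-prestimulated mouse reporter cells; stable AHR-inducible firefly luc construct with DRE sites in promoter. No-agonist wells = positive inhibition ctrl. Luminescence normalized to pos/neg ctrls; n>1 reported as mean or median.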

AHR [2] = biological target: T2, AHR (Homo sapiens, UniProt P35869); assay: In vitro assay 1: antagonism in human cell line (AHR transactivation, firefly luciferase reporter, kynurenic acid prestimulated); type: cell-based; details: AHR Antagonism Human IC50 [M]
T2 construct: U87 MG glioblastoma cells (ATCC #HTB-14) endogenously expressing AHR; endogenous in cells; host or cells: U87 MG glioblastoma cells (ATCC #HTB-14)
T2 sequence (P35869 11-848): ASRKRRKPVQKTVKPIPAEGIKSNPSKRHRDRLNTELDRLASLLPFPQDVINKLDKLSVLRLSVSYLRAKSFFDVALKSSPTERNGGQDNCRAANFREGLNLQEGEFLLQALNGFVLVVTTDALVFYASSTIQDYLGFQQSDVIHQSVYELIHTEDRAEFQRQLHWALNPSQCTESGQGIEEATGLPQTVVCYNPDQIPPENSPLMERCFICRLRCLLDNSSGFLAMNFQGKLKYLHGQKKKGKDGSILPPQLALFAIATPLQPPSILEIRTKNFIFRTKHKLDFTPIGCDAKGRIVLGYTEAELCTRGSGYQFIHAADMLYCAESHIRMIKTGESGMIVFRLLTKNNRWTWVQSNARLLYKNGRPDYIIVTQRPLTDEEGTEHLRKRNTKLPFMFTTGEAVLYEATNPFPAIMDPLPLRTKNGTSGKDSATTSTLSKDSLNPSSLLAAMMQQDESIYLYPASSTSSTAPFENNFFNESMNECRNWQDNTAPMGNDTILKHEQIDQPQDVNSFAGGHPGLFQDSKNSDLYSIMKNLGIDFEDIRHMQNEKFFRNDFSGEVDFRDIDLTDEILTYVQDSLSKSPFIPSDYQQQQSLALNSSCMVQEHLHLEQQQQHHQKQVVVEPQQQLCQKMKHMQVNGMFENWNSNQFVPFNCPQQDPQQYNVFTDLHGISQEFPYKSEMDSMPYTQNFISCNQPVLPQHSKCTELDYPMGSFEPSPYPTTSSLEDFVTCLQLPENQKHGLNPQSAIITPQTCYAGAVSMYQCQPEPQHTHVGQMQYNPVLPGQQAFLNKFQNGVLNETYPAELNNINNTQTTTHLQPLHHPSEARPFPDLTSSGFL
Method in brief: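 Antagonism is measured against kynurenic acid prestimulation in U87 MG glioblastoma cells carrying stable DRE-luciferase and Renilla reporters. Positive inhibition control: 150 μM kynurenic acid with 5 μM staurosporine. Values are normalized to controls; repeats are averaged or given as medians.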

[3] = mouse Hepa 1c1c7 cells, 200 μM kynurenic acid, 20 hours, read-out: AHR Antagonism Mouse IC50
[4] = Hepa 1c1c7 cells, 200 μM kynurenic acid, 20 hours, firefly luciferase reporter, read-out: AHR Antagonism Mouse IC50

What does the source list for COc1ccc(-c2nc3c4ccccc4nc(N[C@@H]4CCCCNC4=O)n3n2)cc1 [Example 29, (3R)-3-{[2-(4-methoxyphenyl)[1,2,4]triazolo[1,5-c]quinazolin-5-yl]amino}azepan-2-one]?
IC50 (AHR [1]; [3]): 0.524 nM; IC50 (AHR [2]): 4.03e-10 M

With COc1ccc(-c2nc3c4cccc(OC)c4nc(N[C@@H]4CNCCNC4=O)n3n2)cc1 [Example 265, (6R)-6-{[7-methoxy-2-(4-methoxyphenyl)[1,2,4]triazolo[1,5-c]quinazolin-5-yl]amino}-1,4-diazepan-5-one] as the compound, how does the IC50 (AHR [1]; [3]) read?
The IC50 was 373 nM.

And the IC50 (AHR [2])?
The IC50 was 2.38e-07 M.

With COC(=O)N1CCN(C(=O)[C@@H](C)Nc2nc3c(Br)cccc3c3nc(-c4cnn(C)c4)nn23)CC1 [Example 893, methyl 4-{N-[7-bromo-2-(1-methyl-1H-pyrazol-4-yl)[1,2,4]triazolo[1,5-c]quinazolin-5-yl]-D-alanyl}piperazine-1-carboxylate] as the compound, how does the IC50 (AHR [1]; [4]) read?
The IC50 was 18.2 nM.

And the IC50 (AHR [2]; firefly luciferase reporter)?
Its IC50 is 2.65e-08 M.

What does the source list for COc1cccc(-c2nc3c4ccccc4nc(N[C@H](C)C(=O)NCCO)n3n2)c1 [Example 111, N-(2-hydroxyethyl)-N^2-[2-(3-methoxyphenyl)[1,2,4]triazolo[1,5-c]quinazolin-5-yl]-D-alaninamide]?
IC50 (AHR [1]; [3]): 15.8 nM; IC50 (AHR [2]): 1.42e-08 M

Cc1ccccc1-c1nc2c3ccccc3nc(N[C@@H]3CCCCNC3=O)n2n1 [Example 42, (3R)-3-{[2-(2-methylphenyl)[1,2,4]triazolo[1,5-c]quinazolin-5-yl]amino}azepan-2-one] was tested. Which IC50 (AHR [1]; read-out: AHR Antagonism Mouse IC50, mouse Hepa 1c1c7 cells, 200 μM kynurenic acid, 20 hours) did it give?
The IC50 was 0.158 nM.

And the IC50 (AHR [2])?
Its IC50 is 3.03e-10 M.

With CC[C@@H](Nc1nc2ccccc2c2nc(-c3ccc(Cl)cc3OC(F)(F)F)nn12)C(N)=O [Example 523, (2R)-2-({2-[4-chloro-2-(trifluoromethoxy)phenyl][1,2,4]triazolo[1,5-c]quinazolin-5-yl}amino)butanamide] as the compound, how does the IC50 (AHR [1]; [3]) read?
Its IC50 is 0.84 nM.

And the IC50 (AHR [2])?
The IC50 was 4.99e-09 M.

With CC(C)n1cc(-c2nc3c4cccc(F)c4nc(N[C@@H]4CNCCNC4=O)n3n2)cn1 [Example 971, (6R)-6-({7-fluoro-2-[1-(propan-2-yl)-1H-pyrazol-4-yl][1,2,4]triazolo[1,5-c]quinazolin-5-yl}amino)-1,4-diazepan-5-one] as the compound, how does the IC50 (AHR [1]; [4]) read?
Its IC50 is 286 nM.

What about the IC50 (AHR [2]; firefly luciferase reporter) of the same compound?
The IC50 was 7.72e-07 M.

For COc1ccc(-c2nc3c4ccc(C)cc4nc(N[C@@H]4CCCCNC4=O)n3n2)cc1 [Example 228, (3R)-3-{[2-(4-methoxyphenyl)-8-methyl[1,2,4]triazolo[1,5-c]quinazolin-5-yl]amino}azepan-2-one], which IC50 (AHR [1]; [3]) is on record?
The IC50 was 38.9 nM.

And the IC50 (AHR [2])?
The IC50 was 3.01e-08 M.

Which results are given for CC[C@@H](Nc1nc2ccccc2c2nc(-c3cnccn3)nn12)C(N)=O [Example 691, (2R)-2-{[2-(pyrazin-2-yl)[1,2,4]triazolo[1,5-c]quinazolin-5-yl]amino}butanamide]?
IC50 (AHR [1]; [3]): 240 nM; IC50 (AHR [2]): 5.61e-07 M

What does the source list for O=C1NCCCC[C@@H]1Nc1nc2ccccc2c2nc(-c3cc(Cl)ccc3OC(F)(F)F)nn12 [Example 498, (3S)-3-({2-[5-chloro-2-(trifluoromethoxy)phenyl][1,2,4]triazolo[1,5-c]quinazolin-5-yl}amino)azepan-2-one]?
IC50 (AHR [1]; [3]): 700 nM; IC50 (AHR [2]): > 2e-05 M

For Cn1cc(-c2nc3c4cc(Br)cc(Br)c4nc(N[C@@H]4CCCCNC4=O)n3n2)cn1 [Example 594, (3R)-3-{[7,9-dibromo-2-(1-methyl-1H-pyrazol-4-yl)[1,2,4]triazolo[1,5-c]quinazolin-5-yl]amino}azepan-2-one], which IC50 (AHR [1]; [3]) is on record?
The IC50 was > 20000 nM.

What about the IC50 (AHR [2]) of the same compound?
The IC50 was 5.01e-07 M.

What does the source list for O=C1NCCCC[C@H]1Nc1nc2ccccc2c2nc(-c3cnn(CC4CC4)c3)nn12 [Example 602, (3R)-3-({2-[1-(cyclopropylmethyl)-1H-pyrazol-4-yl][1,2,4]triazolo[1,5-c]quinazolin-5-yl}amino)azepan-2-one]?
IC50 (AHR [1]; [3]): 2.69 nM; IC50 (AHR [2]): 6.81e-09 M

Which results are given for CC[C@@H](Nc1nc2ccccc2c2nc(-c3cccc(OC)c3)nn12)C(N)=O [Example 88, (2R)-2-{[2-(3-methoxyphenyl)[1,2,4]triazolo[1,5-c]quinazolin-5-yl]amino}butanamide]?
IC50 (AHR [1]; [3]): 0.437 nM; IC50 (AHR [2]): 2.11e-09 M

What does the source list for Cc1cc(-c2nc3c4ccccc4nc(N[C@@H]4CCNC4=O)n3n2)cs1 [Example 356, (3R)-3-{[2-(5-methylthiophen-3-yl)[1,2,4]triazolo[1,5-c]quinazolin-5-yl]amino}pyrrolidin-2-one]?
IC50 (AHR [1]; [3]): 30.4 nM; IC50 (AHR [2]): 2.71e-08 M

Which IC50 (AHR [1]; read-out: AHR Antagonism Mouse IC50, Hepa 1c1c7 cells, 200 μM kynurenic acid, 20 hours, firefly luciferase reporter) does the source give for CC[C@@H](Nc1nc2ccccc2c2nc(-c3cn(C)nn3)nn12)C(N)=O [Example 793, (2R)-2-{[2-(1-methyl-1H-1,2,3-triazol-4-yl)[1,2,4]triazolo[1,5-c]quinazolin-5-yl]amino}butanamide] here?
The IC50 was 694 nM.

And the IC50 (AHR [2]; firefly luciferase reporter)?
The IC50 was 2.94e-06 M.

For CCCCNC(=O)[C@@H](CC)Nc1nc2c(Br)cccc2c2nc(-c3ccc(Cl)cc3OC(F)F)nn12 [Example 804, (2R)-2-({7-bromo-2-[4-chloro-2-(difluoromethoxy)phenyl][1,2,4]triazolo[1,5-c]quianzolin-5-yl}amino)-N-butylbutanamide], which IC50 (AHR [1]; [4]) is on record?
The IC50 was 3 nM.

And the IC50 (AHR [2]; firefly luciferase reporter)?
Its IC50 is 6.42e-09 M.

With CCn1cc(-c2nc3c4cccc(Br)c4nc(N[C@@H]4CCCCNC4=O)n3n2)cn1 [Example 831, (3R)-3-{[7-bromo-2-(1-ethyl-1H-pyrazol-4-yl)[1,2,4]triazolo[1,5-c]quinazolin-5-yl]amino}azepan-2-one] as the compound, how does the IC50 (AHR [1]; [4]) read?
Its IC50 is 1.54 nM.

And the IC50 (AHR [2]; firefly luciferase reporter)?
Its IC50 is 8.88e-10 M.

O=C1NCCCC[C@H]1Nc1nc2c(C(F)(F)F)cccc2c2nc(-c3ccc(Cl)cc3)nn12 [Example 833, (3R)-3-{[2-(4-chlorophenyl)-7-(trifluoromethyl)[1,2,4]triazolo[1,5-c]quinazolin-5-yl]amino}azepan-2-one] was tested. Which IC50 (AHR [1]; [4]) did it give?
The IC50 was 1.27 nM.

And the IC50 (AHR [2]; firefly luciferase reporter)?
The IC50 was 1.12e-09 M.

What does the source list for O=C1NCCNC[C@H]1Nc1nc2c(C(F)(F)F)cccc2c2nc(-c3cccc(F)c3)nn12 [Example 424, (6R)-6-{[2-(3-fluorophenyl)-7-(trifluoromethyl)[1,2,4]triazolo[1,5-c]quinazolin-5-yl]amino}-1,4-diazepan-5-one]?
IC50 (AHR [1]; [3]): 1.69 nM; IC50 (AHR [2]): 5.89e-10 M

Which results are given for Cn1cc(-c2nc3c4cccc(C(F)(F)F)c4nc(NC4C(=O)NCC4(C)C)n3n2)cn1 (single isomer, unassigned; (-)) [Example 729, (−)-4,4-dimethyl-3-{[2-(1-methyl-1H-pyrazol-4-yl)-7-(trifluoromethyl)[1,2,4]triazolo[1,5-c]quinazolin-5-yl]amino}pyrrolidin-2-one]?
IC50 (AHR [1]; [3]): 161 nM; IC50 (AHR [2]): 3.6e-06 M

Which results are given for COc1cccc(-c2nc3c4c(C)cccc4nc(NC4CCCNC4=O)n3n2)c1 (centres unmarked) [Example 180, 3-{[2-(3-methoxyphenyl)-10-methyl[1,2,4]triazolo[1,5-c]quinazolin-5-yl]amino}piperidin-2-one]?
IC50 (AHR [1]; [3]): 253 nM; IC50 (AHR [2]): 1.27e-07 M

Which IC50 (AHR [1]; [3]) does the source give for COc1ccc(-c2nc3c4cccc(F)c4nc(N[C@@H]4CNCCNC4=O)n3n2)cc1 [Example 426, (6R)-6-{[7-fluoro-2-(4-methoxyphenyl)[1,2,4]triazolo[1,5-c]quinazolin-5-yl]amino}-1,4-diazepan-5-one] here?
Its IC50 is 14.3 nM.

And the IC50 (AHR [2])?
Its IC50 is 1.84e-08 M.
